Test results reported in the supplement of paper PMC10307832.

How the values were obtained:
Assay in all cases: relative viability (nuclei count vs DMSO), 5 days (fraction); higher = more cells survive
Seliciclib = compound: CC[C@H](CO)Nc1nc(NCc2ccccc2)c2ncn(C(C)C)c2n1 [Seliciclib]
How it was run: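 Lung cancer cell lines in 1536-well plates were exposed by pinning to five library-drug doses (not always all listed) √10 apart, following an overnight hold at 37 °C. MetaXpress counted Hoechst-stained nuclei from 4× images taken after 5 days without medium change. Viability is the median ratio of treated-well to vehicle-well nuclei across plates. Plates required control CV below 25% and at least one doubling.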

Seliciclib + Foretinib = compound: CC[C@H](CO)Nc1nc(NCc2ccccc2)c2ncn(C(C)C)c2n1 [Seliciclib] + COc1cc2c(Oc3ccc(NC(=O)C4(C(=O)Nc5ccc(F)cc5)CC4)cc3F)ccnc2cc1OCCCN1CCOCC1 [Foretinib] (partner 0.25 µM)
How it was run: (§1)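 Five library-drug doses in √10 steps were combined with a fixed anchor-drug dose, or a single drug was given alone, by pin tool to lung cancer cell lines in 1536-well plates the day after seeding. Nuclei were stained and counted after 5 days. Relative viability is the nuclei count in treated wells over that in vehicle wells, taken as the median of duplicate plates.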

Seliciclib + OSI-027 = compound: CC[C@H](CO)Nc1nc(NCc2ccccc2)c2ncn(C(C)C)c2n1 [Seliciclib] + COc1cccc2cc(-c3nc([C@H]4CC[C@H](C(=O)O)CC4)n4ncnc(N)c34)[nH]c12 [OSI-027] (partner 0.5 µM)
How it was run: as §1

Seliciclib + Palbociclib = compound: CC[C@H](CO)Nc1nc(NCc2ccccc2)c2ncn(C(C)C)c2n1 [Seliciclib] + CC(=O)c1c(C)c2cnc(Nc3ccc(N4CCNCC4)cn3)nc2n(C2CCCC2)c1=O [Palbociclib] (partner 0.5 µM)
How it was run: as §1

Row | Cell Line | relative viability (Seliciclib; 0.08 µM) | relative viability (Seliciclib; 0.253 µM) | relative viability (Seliciclib; 0.8 µM) | relative viability (Seliciclib; 2.53 µM) | relative viability (Seliciclib; 8 µM) | relative viability (Seliciclib + Foretinib; first compound 0.08 µM) | relative viability (Seliciclib + Foretinib; first compound 0.253 µM) | relative viability (Seliciclib + Foretinib; first compound 0.8 µM) | relative viability (Seliciclib + Foretinib; first compound 2.53 µM) | relative viability (Seliciclib + Foretinib; first compound 8 µM) | relative viability (Seliciclib + OSI-027; first compound 0.08 µM) | relative viability (Seliciclib + OSI-027; first compound 0.253 µM) | relative viability (Seliciclib + OSI-027; first compound 0.8 µM) | relative viability (Seliciclib + OSI-027; first compound 2.53 µM) | relative viability (Seliciclib + OSI-027; first compound 8 µM) | relative viability (Seliciclib + Palbociclib; first compound 0.08 µM) | relative viability (Seliciclib + Palbociclib; first compound 0.253 µM) | relative viability (Seliciclib + Palbociclib; first compound 0.8 µM) | relative viability (Seliciclib + Palbociclib; first compound 2.53 µM) | relative viability (Seliciclib + Palbociclib; first compound 8 µM)
1 | NCI-H322M | 0.932 | 1.09 | 0.798 | 0.799 | 0.753 | 1 | 1.23 | 0.907 | 0.865 | 0.752 | 0.561 | 0.482 | 0.516 | 0.348 | 0.43 | 0.472 | 0.538 | 0.467 | 0.428 | 0.431
2 | NCI-H358 | 0.932 | 0.922 | 0.785 | 0.621 | 0.633 | 0.684 | 0.597 | 0.752 | 0.665 | 0.457 | 0.79 | 0.501 | 0.652 | 0.58 | 0.448 | 0.13 | 0.167 | 0.133 | 0.105 | 0.107
3 | NCI-H441 | 1.07 | 1.01 | 1.06 | 0.783 | 0.566 | 0.791 | 0.86 | 0.969 | 0.93 | 0.623 | 0.794 | 0.582 | 0.645 | 0.335 | 0.423 | 0.199 | 0.217 | 0.203 | 0.144 | 0.14
4 | NCI-H460 | 0.952 | 1.13 | 0.996 | 1.04 | 0.889 | 0.993 | 1.05 | 1 | 1.06 | 0.882 | 0.706 | 0.601 | 0.672 | 0.563 | 0.561 | 0.203 | 0.186 | 0.169 | 0.117 | 0.0761
5 | NCI-H520 | 0.918 |  | 0.968 | 1.12 | 0.843 | 0.759 |  | 0.826 | 0.76 | 0.858 | 0.275 |  | 0.324 | 0.277 | 0.228 | 0.237 | 0.187 | 0.17 | 0.189 | 0.203
6 | NCI-H647 | 0.971 | 0.836 | 1.03 | 0.939 | 0.754 | 1.16 |  | 1.13 | 1.19 | 1.09 | 0.616 |  | 0.652 | 0.552 | 0.534 | 0.321 | 0.188 | 0.395 | 0.296 | 0.216
7 | NCI-H650 | 0.942 | 0.892 | 1.24 | 0.591 | 0.831 | 1.03 | 1.03 | 0.912 | 0.842 | 0.856 | 0.539 | 0.497 | 0.651 | 0.313 | 0.495 | 0.357 | 0.264 | 0.402 | 0.248 | 0.234
8 | NCI-H661 | 0.964 | 1.02 | 0.966 | 0.916 | 0.756 | 1.03 | 0.936 | 0.975 | 0.945 | 0.636 | 0.757 | 0.741 | 0.687 | 0.65 | 0.637 | 0.396 | 0.401 | 0.359 | 0.286 | 0.292
9 | NCI-H727 | 0.85 | 0.891 | 0.8 | 0.796 | 0.75 | 0.905 | 0.917 | 0.716 | 0.661 | 0.896 | 0.792 | 0.687 | 0.465 | 0.338 | 0.636 | 0.619 | 0.601 | 0.555 | 0.577 | 0.575
10 | NCI-H838 | 0.945 | 0.956 | 0.944 | 0.926 | 0.805 | 0.902 | 0.928 | 0.998 | 1.11 | 0.808 | 0.425 | 0.44 | 0.325 | 0.247 | 0.292 | 0.216 | 0.257 | 0.211 | 0.169 | 0.197
11 | NCI-H1355 | 0.977 | 0.959 | 0.89 | 0.905 | 0.959 | 0.95 | 0.976 | 0.706 | 1.03 | 0.93 | 0.462 | 0.303 | 0.372 | 0.288 | 0.39 | 0.374 | 0.331 | 0.364 | 0.371 | 0.341
12 | NCI-H1395 | 0.978 | 0.725 | 0.857 | 0.789 | 0.94 | 0.974 | 0.905 | 0.978 | 0.995 | 0.966 | 0.728 | 0.576 | 0.606 | 0.612 | 0.587 | 0.596 | 0.49 | 0.604 |  | 0.523
13 | NCI-H1437 | 0.965 | 1.12 | 0.968 | 0.95 | 0.872 | 1.2 | 1.31 | 1.26 | 1.31 | 1.18 | 0.844 | 0.877 | 0.99 | 0.52 | 0.787 | 0.323 | 0.324 | 0.298 | 0.221 | 0.223
14 | NCI-H1650 | 0.926 | 1.1 | 0.95 | 0.824 | 0.663 | 0.984 | 1.1 | 0.956 | 1.35 | 0.981 | 0.842 | 0.518 | 0.641 | 0.487 | 0.443 | 0.369 | 0.317 | 0.332 | 0.353 | 0.216
